Test results published in patent publication US20230293488A1, “COMPOSITIONS AND METHODS OF USE OF ANTIBACTERIAL DRUG COMBINATIONS” (priority 2015, published 2023).

Assays:
MRSA N315 [1] = assay: MIC assay and FICI synergy determination (checkerboard); format: cell-based, Staphylococcus aureus; details: for MIC: Staphylococcus aureus, MRSA, read-out: MIC in MRSA N315
Procedure: (§1) Microbiological Studies: MRSA N315 was a gift from Dr. Steven Gill, University of Rochester, Rochester, NY, USA. S. aureus ATCC 29213 was acquired from the American Type Culture Collection. De-identified clinical MRSA isolates were selected at random from the clinical isolate strain bank at Barnes-Jewish Hospital, St. Louis, MO, USA. Minimal inhibitory concentration (MIC) assays for inhibition of growth were performed following the recommendations of the Clinical and Laboratory Standards Institute (CLSI)^43. Briefly, 23 antibacterial compounds (Supplemental Table 1) were selected based on coverage of all major drug classes, including three compounds not classified as antibiotics for human use, but with known antibacterial properties. Compounds were dissolved in dimethyl sulfoxide (DMSO) to a stock concentration of 50 mg/ml. Exceptions: Sulfometuron at 20 mg/ml in DMSO; Tobramycin, D-cycloserine, and colistin at 50 mg/ml in H2O and filtered at 2 μm. The 23 compounds were formulated into all 253 possible unique pairwise combinations at fixed ratios and at 100× concentrations in solvent. To increase the range of concentrations assayed for possible synergistic or antagonistic drug interactions (>2,000-fold), the drug stocks were arrayed into threefold dilution series down eight rows in 96-well Costar master drug plates, using a BioMek FX robotic liquid handler (Beckman Coulter, Inc.). Drugs were then mixed 1:100 into 96-well plates containing 200 μl/well of cation-adjusted Mueller-Hinton broth (CAMHB). All drug susceptibility assay wells were inoculated with ˜1 μl of mid-log phase bacterial culture at 0.5 McFarland standard (˜2×10^8 CFU/ml) and grown at 37° C. for 24 h. Endpoint growth at 37° C. after 24 h was determined by optical density at 600 nm ≥0.1 using a Synergy H1 reader (BioTek, Inc.).
Synergy of antibiotic combinations was determined using the fractional inhibitory concentration index (FICI) method ^57,58. By this method, the MIC of the antibiotic compound in combination is divided by the MIC of the compound alone, yielding the fractional contribution of each drug component in the combination. Quotients for all in a combination are summed and drug interactions scored using the formula: FICI=(MIC Acomb A B C)/MICagent A+(MIC Bcomb A B C)/MICagent B+(MIC Ccomb A B C)/MICagentC Select pairwise combinations against MRSA were then combined with each of the 21 remaining single drugs to make triple combinations, formulated and tested in identical fashion to the double combinations. Synergy of combinations was confirmed via triplicate measurements of drug conditions at the MIC. Based on its high synergy against MRSA N315 in the sparse screening, ME/PI/TZ and its constituents were selected for further characterization. Final susceptibility testing of ME/PI/TZ and its components was performed using twofold dilution from 128 to 2 μg/ml for each component

MRSA N315 [2] = assay: Neutropenic mouse peritonitis model of MRSA infection; format: in vivo, mice; details: for Result (Alive/Dead) / Result (survivors per group): 6 doses; for Result (Alive/Dead): one line per mouse; for Result (survivors per group): six days post-infection
Excerpt: In vivo mouse model of MRSA infection: Animals. Outbred ICR female mice (6-8 weeks old, 17-25 g body weight; Harlan Laboratories, Inc., Indianapolis, IN, USA) were used. Mice were given Teklad 2019 Extruded Rodent Diet (Harlan Laboratories, Inc., Indianapolis, IN, USA) and water ad libitum. Mice were maintained in polycarbonate shoebox cages containing corncob (The Andersons, Inc., Maumee, OH, USA) and Alpha-dri (Shepherd Specialty Papers, Inc., Richland, MI, USA) bedding under 12-h light/12-h dark cycle at 22±1° C. All procedures involving animals were approved by the University of Notre Dame Institutional Animal Care and Use Committee.
Neutropenic mouse peritonitis model of MRSA infection. Doses of cyclophosphamide (100 μl of 50 mg/ml in 0.9% saline corresponding to 200 mg/kg; Alfa Aesar, Ward Hill, MA, USA) were given intraperitoneally (IP) at 4 days and 1 day prior to infection. The S. strain N315 was streaked onto Brain-Heart Infusion (BHI; Becton Dickson and Company, Sparks, MD, USA) agar and grown overnight at 36° C. The MRSA N315 bacterial inoculum was adjusted to approximately 1×10^8 CFU/ml (corresponding to OD540=0.5), then diluted to give 2×10^7CFU/ml. A 10% porcine mucin (Sigma-Aldrich, St. Louis, MO, USA) suspension was prepared and adjusted to pH 7. Immediately prior to infection, the bacterial inocula were diluted 1:1 with 10% mucin to a final concentration of 1×10^7CFU/ml in 5% mucin. The mice were then infected IP with 0.5 ml of this inoculum. In vivo dosing of compounds in mice was compared with mean or range peak human plasma concentrations of studied β-lactams^44,46,47,62,63.
Antibiotic preparation. Meropenem was obtained from AK Scientific, Inc. (Union City, CA, USA), piperacillin and tazobactam were obtained from Sigma-Aldrich Co. (St. Louis, MO, USA). Linezolid (CAS 165800-03-3) was obtained from AmplaChem (Carmel, IN, USA). Antibiotics were dissolved at a concentration of 16.67 mg/ml in 30% DMSO/30% propylene glycol/40% water. Linezolid was used as positive control and was prepared at 7.5 mg/ml. Vehicle (30% DMSO/30% propylene glycol/40% water) was included as negative control. The dosing formulations were sterilized by passing through 0.2 μm filter prior to injection.
(§2) Bacterial isolation from blood. Blood samples were checked for bacterial growth by plating and liquid culture. Whole blood (100 μl, three samples per group) was spread onto Brain-Heart Infusion (BHI) agar plates and incubated at 36° C. overnight. Colonies were counted and three colonies were selected, grown overnight in liquid BHI culture at 36° C., then mixed 1:1 with 30% LB-glycerol and stored at −80° C. The remaining three blood samples of each group (50 μl) was added to 5 ml BHI broth and incubated overnight at 36° C. When growth was noted, cultures were mixed 1:1 with 30% LB-glycerol and stored at −80° C.
Statistical Analyses: Data for minimal inhibitory concentrations (MICs) are derived from triplicate measurements. Adaptation data are taken from two replicate experiments for each drug combination condition. Data for qRT-PCR expression profiling are derived from three replicate experiments taken from three biological replicates each, with standard error of measurement calculated. Mice were treated in groups of six, and growth determination of bacteria determined via plate and broth culture in triplicate. Fisher's Exact test with Bonferroni correction was used for 8 independent tests (comparing each treatment to 610 vehicle).

MRSA N315 [3] = assay: In vitro MICs and FICI for MRSA N315 after passage in vivo; format: cell-based, Staphylococcus aureus
Excerpt: We tested MRSA N315 cultures from blood drawn from mice treated with meropenem, piperacillin, or vehicle for their in vitro MICs against ME/PI/TZ and its constituent single drugs to determine whether adaptation occurred during passage in vivo. All four tested isolates of MRSA N315 had identical MICs for the triple ME/PI/TZ and all constituent drugs, and thus identical synergy (Table 6B).
as §1, §2

mecA = assay: Expression profiling with qRT-PCR; format: cell-based, Staphylococcus aureus; details: wild-type MRSA N315, relative to gyrB
Procedure: Expression profiling with qRT-PCR: Wild-type and adapted MRSA N315 isolates were grown in triplicate in 100 ml flasks to mid-log phase in CAMHB +/−piperacillin at 11.1 μg/ml or tazobactam at 33.3 μg/ml. To harvest cells at mid-log phase, each culture flask was split into 2×50 ml screw-cap tubes, spun down at 4° C. for 10 min at 3500 rpm, supernatant removed, and pellets combined carefully with a 2 ml serological pipette. 1 ml RNAprotect Bacteria Reagent (Qiagen, Valencia, CA, USA) was added to pellets to stabilize the RNA, vortexed briefly, and incubated for 5 min at RT. After incubation, tubes were spun again at 4° C. for 10 min at 3500 rpm, supernatant removed, and the pellets were stored at −80° C. […]
CFX protocol: 2 min@50° C., 2 min@95° C., (15 s@95° C., 1 min@60° C.)×40 cycles. Gene expression was determined using the ΔΔCt method of normalized quantitation 60, where Ct indicates the cycle number at which exponential growth phase increases above threshold fluorescence signal.

MRSA N315 [4] = assay: Adaptation and cross-resistance assays (11-day passage); format: cell-based, Staphylococcus aureus
Procedure: Adaptation and Cross-resistance Assays: 414 MRSA N315 was grown in 150 μl/well of CAMHB with constant shaking at 37° C. and passaged over 11 days in identical 96-well plates containing replicate threefold dilutions of ME/PI/TZ, ME/PI, ME/TZ, PI/TZ, ME, PI, and TZ. Top concentrations of drug combinations were 33.3 μg/ml for each component, while top concentrations for single drugs was 100 μg/ml. To test for cell viability, at the end of the assay on day 11, all wells from the plate were pinned with a sterile 96-pin replicator and transferred to CAMHB only. After passage, plates were filled 1:1 with 30% CAMHB/glycerol and frozen at −80° C. for later analysis.
Growth rate of isolates over passages in each condition was determined by linear best-fit of logarithm-converted exponential growth phase. […] Adapted isolates were retrospectively chosen from each combination or single compound in wells showing an increase in MIC or growth rate, frozen isolates were streaked out on agar plates to obtain single colonies, re-grown in broth conditions identical to those in which they grew originally, and then re-inoculated in sterile 96-well plates identical to the original 11-day 431 plates.

[5] = 67 mg/kg (of each) every 8 hrs SC

Compound: CC[C@H]1OC(=O)[C@H](C)[C@@H](O[C@H]2C[C@@](C)(OC)[C@@H](O)[C@H](C)O2)[C@H](C)[C@@H](O[C@@H]2O[C@H](C)C[C@H](N(C)C)[C@H]2O)[C@](C)(O)C[C@@H](C)CN(C)[C@H](C)[C@@H](O)[C@]1(C)O [Azithromycin]
- MIC (MRSA N315 [1]; single compounds): > 200 mg/L

Compound: C[C@H]1[C@H](NC(=O)/C(=N\OC(C)(C)C(=O)O)c2csc(N)n2)C(=O)N1S(=O)(=O)O [Aztreonam]
- MIC (MRSA N315 [1]; single compounds): > 500 mg/L

Compound: CO/N=C(\C(=O)N[C@@H]1C(=O)N2C(C(=O)[O-])=C(C[N+]3(C)CCCC3)CS[C@H]12)c1csc(N)n1 [Cefepime]
- MIC (MRSA N315 [1]; single compounds): 100 mg/L

Compound: O=C(N[C@H](CO)[C@H](O)c1ccc([N+](=O)[O-])cc1)C(Cl)Cl [Chloramphenicol]
- MIC (MRSA N315 [1]; single compounds): 11.1 mg/L

Compound: CCC[C@@H]1C[C@@H](C(=O)N[C@@H]([C@H]2O[C@H](SC)[C@H](O)[C@@H](O)[C@H]2O)[C@H](C)Cl)N(C)C1 [Clindamycin]
- MIC (MRSA N315 [1]; single compounds): > 500 mg/L

Compound: N[C@@H]1CONC1=O [D-Cycloserine]
- MIC in MRSA N315 (MRSA N315 [1]; single compounds): 56 mg/L

Compound: CCN(CC)C(=S)SSC(=S)N(CC)CC [Disulfiram]
- MIC (MRSA N315 [1]): 11.1 mg/L

Compound: Cc1ccc(C)c(OCCCC(C)(C)C(=O)O)c1 [Gemfibrozil]
- MIC (MRSA N315 [1]; single compounds): > 200 mg/L

Compound: C[C@H]1COc2c(N3CCN(C)CC3)c(F)cc3c(=O)c(C(=O)O)cn1c23 [Levofloxacin]
- MIC (MRSA N315 [1]; single compounds): 0.4 mg/L

Compound: CC(=O)NC[C@H]1CN(c2ccc(N3CCOCC3)c(F)c2)C(=O)O1 [Linezolid]
- MIC (MRSA N315 [1]; single compounds): 3.7 mg/L
- bacteria in blood taken at 11 h post-infection (MRSA N315 [2]; 30 mg/kg): zero plated colonies and no growth in liquid cultures
- Result (Alive/Dead) (MRSA N315 [2]; 30 mg/kg every 8 hrs SC): Alive
- Result (survivors per group) (MRSA N315 [2]; 30 mg/kg every 8 hrs SC): 6/6
- survival for six days post-infection (MRSA N315 [2]; 30 mg/kg, n=6/group): All mice
- p versus vehicle (Fisher's exact test) (MRSA N315 [2]; survival, n=6/group): 0.02

Compound: C/C(=C\C(=O)OCCCCCCCCC(=O)O)C[C@@H]1OC[C@H](C[C@@H]2O[C@H]2[C@@H](C)[C@H](C)O)[C@@H](O)[C@H]1O [Mupirocin]
- MIC (MRSA N315 [1]; single compounds): 0.4 mg/L

Compound: CO[C@H]1/C=C/O[C@@]2(C)Oc3c(C)c(O)c4c(O)c(c(/C=N/N5CCN(C)CC5)c(O)c4c3C2=O)NC(=O)/C(C)=C\C=C\[C@H](C)[C@H](O)[C@@H](C)[C@@H](O)[C@@H](C)[C@H](OC(C)=O)[C@@H]1C [Rifampin]
- MIC (MRSA N315 [1]; single compounds): 0.4 mg/L

Compound: Cc1cc(NS(=O)(=O)c2ccc(N)cc2)no1 [Sulfamethoxazole]
- MIC (MRSA N315 [1]; single compounds): 100 mg/L

Compound: Cc1cc(C)nc(NC(=O)NS(=O)(=O)c2ccccc2C(=O)O)n1 [Sulfometuron]
- MIC (MRSA N315 [1]): > 200 mg/L

Compound: C[C@]1(Cn2ccnn2)[C@H](C(=O)O)N2C(=O)C[C@H]2S1(=O)=O [Tazobactam]
- MIC (MRSA N315 [3]; Staphylococcus aureus, MRSA): 100 mg/L
- MIC (MRSA N315 [3]; Wild-type N315): 100 mg/L
- MIC (MRSA N315 [3]; colonies from mice given PI): 100 mg/L
- MIC (MRSA N315 [3]; colonies from mice given Vehicle): 100 mg/L
- MIC (MRSA N315 [1]; single compounds): 128 mg/L
- induction of mecA expression (mecA): strong inducer of mecA
- Result (Alive/Dead) (MRSA N315 [2]; [5]): Dead
- Result (survivors per group) (MRSA N315 [2]; [5]): 0/6
- mice that succumbed to the infection (MRSA N315 [2]; most within 48 h, 67 mg/kg (of each)): all mice
- collateral effect on susceptibility (MRSA N315 [4]; MRSA N315 after exposure to any other single or double compounds): no collateral sensitivity

Compound: CN(C)c1cc(NC(=O)CNC(C)(C)C)c(O)c2c1C[C@H]1C[C@H]3[C@H](N(C)C)C(O)=C(C(N)=O)C(=O)[C@@]3(O)C(O)=C1C2=O [Tigecycline]
- MIC (MRSA N315 [1]): 0.4 mg/L

Compound: NC[C@H]1O[C@H](O[C@H]2[C@H](O)[C@@H](O[C@H]3O[C@H](CO)[C@@H](O)[C@H](N)[C@H]3O)[C@H](N)C[C@@H]2N)[C@H](N)C[C@@H]1O [Tobramycin]
- MIC (MRSA N315 [1]; single compounds): > 500 mg/L

Compound: COc1cc(Cc2cnc(N)nc2N)cc(OC)c1OC [Trimethoprim]
- MIC (MRSA N315 [1]; single compounds): 6.2 mg/L

Compound: CN[C@H](CC(C)C)C(=O)N[C@H]1C(=O)N[C@@H](CC(N)=O)C(=O)N[C@H]2C(=O)N[C@H]3C(=O)N[C@H](C(=O)N[C@H](C(=O)O)c4cc(O)cc(O)c4-c4cc3ccc4O)[C@H](O)c3ccc(c(Cl)c3)Oc3cc2cc(c3O[C@@H]2O[C@H](CO)[C@@H](O)[C@H](O)[C@H]2O[C@H]2C[C@](C)(N)[C@H](O)[C@H](C)O2)Oc2ccc(cc2Cl)[C@H]1O [Vancomycin]
- MIC (MRSA N315 [1]): 0.4 mg/L

Compound: CC1(C)S[C@@H]2[C@H](NC(=O)[C@H](N)c3ccc(O)cc3)C(=O)N2[C@H]1C(=O)O [amoxicillin]
- collateral effect on susceptibility (MRSA N315 [4]; MRSA N315 after prior exposure/adaptation to meropenem): sensitizing

Compound: Bleomycin
- MIC in MRSA N315 (MRSA N315 [1]; single compounds): >500 mg/L

Compound: Colistin
- MIC in MRSA N315 (MRSA N315 [1]; single compounds): 500 mg/L
